Test [1] addresses T1, recombinant LOX III (Triticum aestivum, UniProt F1DTB8).
T1 construct: gene LOX3; full length, 878 residues, 95 kDa; codon-optimised; LOX III-2A-mClover3 in pGK423, S. cerevisiae BY4741; crude soluble extract
T1 sequence (F1DTB8 1-878): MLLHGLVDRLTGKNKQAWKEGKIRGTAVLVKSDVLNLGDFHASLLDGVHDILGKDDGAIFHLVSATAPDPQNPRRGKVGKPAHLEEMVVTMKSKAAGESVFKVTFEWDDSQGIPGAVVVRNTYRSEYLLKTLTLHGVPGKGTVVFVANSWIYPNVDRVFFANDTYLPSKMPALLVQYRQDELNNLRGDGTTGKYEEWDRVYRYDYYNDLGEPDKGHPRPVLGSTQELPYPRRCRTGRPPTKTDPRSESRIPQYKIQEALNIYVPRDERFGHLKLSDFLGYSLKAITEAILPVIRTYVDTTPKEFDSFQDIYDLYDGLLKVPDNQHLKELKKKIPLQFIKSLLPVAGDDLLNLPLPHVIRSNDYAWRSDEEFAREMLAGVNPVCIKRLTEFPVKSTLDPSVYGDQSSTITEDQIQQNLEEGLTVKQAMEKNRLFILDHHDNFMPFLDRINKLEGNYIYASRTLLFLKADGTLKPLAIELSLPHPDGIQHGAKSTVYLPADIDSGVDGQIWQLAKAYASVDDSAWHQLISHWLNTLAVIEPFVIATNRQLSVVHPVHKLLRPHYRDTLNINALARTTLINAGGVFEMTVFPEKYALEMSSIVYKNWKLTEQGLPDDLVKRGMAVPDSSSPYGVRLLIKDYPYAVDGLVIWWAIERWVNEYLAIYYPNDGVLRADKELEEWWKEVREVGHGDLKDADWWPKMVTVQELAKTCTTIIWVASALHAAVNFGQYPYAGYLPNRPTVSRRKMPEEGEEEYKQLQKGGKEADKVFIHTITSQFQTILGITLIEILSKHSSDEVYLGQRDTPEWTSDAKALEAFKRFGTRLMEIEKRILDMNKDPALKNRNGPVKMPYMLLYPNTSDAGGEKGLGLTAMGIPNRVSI
The test is described as follows: conjugated diene absorbance at […] nm, Lineweaver-Burk. The class given is biochemical. To be noted: crude yeast extract in 50 mM phosphate pH 7.6 (extraction buffer); methods print linoleic acid range as 10 mM to 70 mM, conflicting with Km in µM.

Test [2] addresses T2, recombinant Mini-LOX III (Triticum aestivum, UniProt F1DTB8).
T2 construct: gene LOX3; cut placed by alignment to soybean Mini-LOX STPIEFHSFQ; pGK423, S. cerevisiae BY4741; crude soluble extract
T2 sequence (F1DTB8 343-878 limits assumed): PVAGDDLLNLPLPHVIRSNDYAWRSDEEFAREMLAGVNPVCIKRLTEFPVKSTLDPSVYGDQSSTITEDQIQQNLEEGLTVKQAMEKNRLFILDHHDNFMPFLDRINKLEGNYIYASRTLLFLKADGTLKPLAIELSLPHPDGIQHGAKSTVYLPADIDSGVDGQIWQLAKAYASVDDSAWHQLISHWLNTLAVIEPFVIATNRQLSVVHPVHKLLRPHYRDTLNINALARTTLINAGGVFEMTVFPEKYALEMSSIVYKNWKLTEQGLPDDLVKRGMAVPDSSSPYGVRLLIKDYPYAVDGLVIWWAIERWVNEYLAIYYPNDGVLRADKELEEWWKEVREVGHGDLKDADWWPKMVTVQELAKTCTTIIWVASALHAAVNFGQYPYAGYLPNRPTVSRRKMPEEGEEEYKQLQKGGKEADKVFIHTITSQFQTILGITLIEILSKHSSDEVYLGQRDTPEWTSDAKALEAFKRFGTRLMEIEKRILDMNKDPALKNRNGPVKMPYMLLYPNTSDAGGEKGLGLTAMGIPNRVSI
Described as above. The class given is biochemical. Particulars: crude yeast extract in 50 mM phosphate pH 7.6 (extraction buffer); methods print linoleic acid range as 10 mM to 70 mM, conflicting with Km in µM.

SMILES strings stand for the structures.

Regarding `CCCCC/C=C\C/C=C\CCCCCCCC(=O)O` [linoleic acid], the Km in test [1] was 25.7 µM; in test [2], 21.3 µM.

The record behind these values is paper PMC10847848, “Production of recombinant intact and N-terminal truncated lipoxygenase isozyme III expressed in Saccharomyces cerevisiae and its influence on glutenin polypeptides” (Food Chemistry: Molecular Sciences, 2024).
